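Results reflect a 48-hour exposure of cells in 96-well plates to compound at five concentrations. Here, GI50 denotes the concentration required for 50% inhibition of growth.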 Active and inactive are the calls of the source. Cut-off read from the data, not from the text of the source: active = GI50 up to about 1.1 µM and inactive = higher. A value given as a limit tells only on which side of the number the result lay.

We go through eleven compounds from ChEMBL document CHEMBL1201862, “PubChem BioAssay data set” (2004).

Among the test systems are K562; NCI-H522; HT-29; SNB-75; UO-31; IGROV-1; CAKI-1; COLO 205; HCT-15; MCF7; RXF 393; SK-OV-3; M14; NCI-H460; RPMI-8226; HOP-62; T47D; SN12C; A498; HOP-92.
What all share (assay): NCI anticancer screen, dose series, 48 h

On to `O=c1c2nc[nH]c2n(-c2ccccc2)c(=S)n1-c1ccccc1`, for which the GI50 with K562, with NCI-H522, in the assay with HT-29, in the assay on SNB-75, in the assay with UO-31 and with IGROV-1 was > 100 µM (inactive) in each case. Moreover, the GI50 in the assay on CAKI-1 was > 100 µM (inactive); in the assay on COLO 205, > 100 µM (inactive); with HCT-15, greater than 100 µM; in the assay with MCF7, > 100 µM (inactive); in the assay on RXF 393 it was > 100 µM (inactive); in the assay with SK-OV-3 it was > 100 µM (inactive). For the same compound, the GI50 with M14, in the assay on NCI-H460, in the assay with RPMI-8226, in the assay on HOP-62, in the assay on T47D and in the assay on SN12C was > 100 µM (inactive) each time. In the assay with A498, the GI50 is > 100 µM (inactive).

Take `Cc1nnc2n1-c1ccccc1C(=S)N1CSCC21` (stereo not given): the GI50 in the assay with K562, in the assay with NCI-H522, in the assay with HT-29, in the assay with SNB-75, in the assay on UO-31 and in the assay on IGROV-1 was > 100 µM (inactive) throughout. Besides, the GI50 is > 100 µM (inactive) in the assay on CAKI-1; > 100 µM (inactive) in the assay with COLO 205; 79.3 µM with HCT-15; > 100 µM (inactive) in the assay on MCF7; > 100 µM (inactive) with RXF 393; > 100 µM (inactive) in the assay on SK-OV-3. In addition, the GI50 with M14, in the assay on NCI-H460, with RPMI-8226, with HOP-62, with T47D and with SN12C was > 100 µM (inactive) in each case. For the same compound, in the assay on A498, the GI50 was > 100 µM (inactive).

In the case of `O=C1c2ccccc2C(=O)N1n1c(Cc2ccc(Cl)cc2)n[nH]c1=O`, the GI50 in the assay on K562, in the assay with HT-29, in the assay with SNB-75, in the assay with UO-31, in the assay with HOP-92 and in the assay on IGROV-1 was > 100 µM (inactive) throughout. In addition, the GI50 is > 100 µM (inactive) with CAKI-1; > 100 µM (inactive) in the assay with COLO 205; greater than 100 µM in the assay on HCT-15; > 100 µM (inactive) in the assay on MCF7; > 100 µM (inactive) in the assay on M14; > 100 µM (inactive) in the assay with NCI-H460. In addition, the GI50 in the assay on HOP-62, with T47D, in the assay with SN12C and in the assay with A498 was > 100 µM (inactive) in each case.

For the compound `COc1ccc2nc3c([N+](=O)[O-])ccc4c3c(c2c1)N=CN4CCN(C)C`, the GI50 in the assay with K562 is 0.726 µM (active); in the assay with NCI-H522, 2.03 µM (inactive); in the assay on HT-29, 2.52 µM (inactive); with SNB-75, 2.9 µM (inactive); in the assay with UO-31, 2.46 µM (inactive); with HOP-92, 5.06 µM (inactive). In addition, the GI50 in the assay with IGROV-1 was 2.47 µM (inactive); in the assay with CAKI-1, 1.36 µM (inactive); with COLO 205 it was 2.34 µM (inactive); in the assay on HCT-15, 2.57 µM; in the assay with MCF7, 3.3 µM (inactive); in the assay on SK-OV-3, 9.27 µM (inactive). In addition, the GI50 with M14 was 4.8 µM (inactive); in the assay with NCI-H460, 2.96 µM (inactive); with RPMI-8226 it was 2.24 µM (inactive); with HOP-62, 3.17 µM (inactive); in the assay with T47D, 5.14 µM (inactive); with SN12C, 2.88 µM (inactive). The GI50 in the assay on A498 was 4.16 µM (inactive).

Take `N#CCOc1ccc(/C=C/C(=O)c2ccc(Cl)cc2)cc1`: the GI50 in the assay with K562 is 26 µM (inactive); in the assay on NCI-H522, > 10 µM (inactive); in the assay on HT-29, 50.6 µM (inactive); in the assay on SNB-75 it was 19.5 µM (inactive); in the assay with UO-31, 32.8 µM (inactive); with HOP-92 it was 32 µM (inactive). Moreover, the GI50 was 22 µM (inactive) in the assay on IGROV-1; 77.6 µM in the assay on HCT-15; 11.4 µM (inactive) in the assay on MCF7; 17.5 µM (inactive) with RXF 393; 18.4 µM (inactive) with SK-OV-3; 37 µM (inactive) in the assay on M14. The GI50 was 27.2 µM (inactive) with NCI-H460; 23.1 µM (inactive) with RPMI-8226; 25.2 µM (inactive) with HOP-62; 19.9 µM (inactive) with T47D; 39.8 µM (inactive) in the assay on SN12C; 20.8 µM (inactive) in the assay with A498.

Take `Cc1cc(S(=O)(=O)Nc2n[nH]c(Nc3ccccc3)n2)c(S)cc1Cl`: the GI50 with K562, with NCI-H522, with HT-29, with SNB-75, in the assay with UO-31 and in the assay on IGROV-1 was > 10 µM (inactive) in each case. For the same compound, the GI50 in the assay on CAKI-1 is > 10 µM (inactive); in the assay with COLO 205, > 10 µM (inactive); in the assay on HCT-15, greater than 10 µM; in the assay with MCF7, > 10 µM (inactive); in the assay with RXF 393, > 10 µM (inactive); with SK-OV-3, > 10 µM (inactive). Further, the GI50 in the assay on M14, in the assay on NCI-H460, in the assay with RPMI-8226, with HOP-62, in the assay with T47D and in the assay with SN12C was > 10 µM (inactive) each time. The GI50 in the assay with A498 was > 10 µM (inactive).

Consider `C/C(Nc1ccc(Cl)cc1Cl)=C1/CCOC1=O`, for which the GI50 is > 100 µM (inactive) with K562; 86.5 µM (inactive) in the assay with NCI-H522; > 100 µM (inactive) in the assay on HT-29; 36.9 µM (inactive) in the assay with SNB-75; 40.8 µM (inactive) in the assay with UO-31; 22.8 µM (inactive) in the assay on HOP-92. Further, the GI50 with IGROV-1 is > 100 µM (inactive); in the assay with COLO 205 it was > 100 µM (inactive); in the assay with HCT-15, greater than 100 µM; with MCF7 it was > 100 µM (inactive); with RXF 393 it was 13.5 µM (inactive); in the assay on NCI-H460 it was 89.5 µM (inactive). The GI50 was > 100 µM (inactive) in the assay on RPMI-8226; 27 µM (inactive) in the assay on HOP-62; 46.5 µM (inactive) with T47D; 41.5 µM (inactive) with SN12C; 59.8 µM (inactive) in the assay on A498.

As for `Cn1c(=O)nc2n(CCO)ccnc-2c1=O`, the GI50 with K562, with NCI-H522, with HT-29, in the assay with SNB-75, with UO-31 and with HOP-92 was > 100 µM (inactive) in each case. Moreover, the GI50 with IGROV-1 is > 100 µM (inactive); with CAKI-1 it was > 100 µM (inactive); in the assay with COLO 205 it was > 100 µM (inactive); in the assay on HCT-15 it was greater than 100 µM; in the assay with MCF7 it was > 100 µM (inactive); in the assay with RXF 393, > 100 µM (inactive). For the same compound, the GI50 in the assay on M14, in the assay with NCI-H460, in the assay with RPMI-8226, with HOP-62, with T47D and with SN12C was > 100 µM (inactive) in each case. In the assay with A498, the GI50 was > 100 µM (inactive).

As to `O=C1C=CC2(C=C1)O[C@H](COCc1ccccc1)[C@@H](COCc1ccccc1)O2`, the GI50 is 2.25 µM (inactive) in the assay with K562; 2.34 µM (inactive) in the assay on HT-29; 4.54 µM (inactive) in the assay on SNB-75; 1.57 µM (inactive) in the assay with UO-31; 1.01 µM (active) in the assay with HOP-92; 1.61 µM (inactive) in the assay on IGROV-1. Moreover, the GI50 is 2.24 µM (inactive) in the assay with CAKI-1; 1.72 µM (inactive) with COLO 205; 1.24 µM in the assay on HCT-15; 0.313 µM (active) in the assay on MCF7; 0.2 µM (active) in the assay on RXF 393; 15.7 µM (inactive) in the assay on SK-OV-3. Further, the GI50 in the assay on M14 is 1.78 µM (inactive); with NCI-H460, 18.8 µM (inactive); in the assay with RPMI-8226 it was 0.42 µM (active); in the assay on HOP-62, 2.23 µM (inactive); in the assay with T47D, 2.04 µM (inactive); in the assay with SN12C it was 1.65 µM (inactive). For the same compound, the GI50 in the assay on A498 is 19.9 µM (inactive).

For `CCOC(=O)c1[nH]c(Br)c(-c2ccc(OC)c(OC)c2)c1Br`, the GI50 was 0.0121 µM (active) in the assay on K562; 0.00991 µM (active) in the assay with NCI-H522; 0.0259 µM (active) in the assay on SNB-75; 0.0676 µM (active) with UO-31; 7.46 µM (inactive) in the assay with HOP-92; 0.0552 µM (active) in the assay on IGROV-1. For the same compound, the GI50 was 0.175 µM (active) with COLO 205; 0.0527 µM with HCT-15; 0.245 µM (active) with MCF7; 0.00906 µM (active) with RXF 393; 0.028 µM (active) in the assay on M14; 0.766 µM (active) in the assay on NCI-H460. The GI50 in the assay on RPMI-8226 was 0.01 µM (active); in the assay with HOP-62, 0.0608 µM (active); in the assay with T47D, 21 µM (inactive); in the assay with SN12C it was 0.117 µM (active); with A498, 0.0187 µM (active).

As for `N#Cc1c(C#N)c(-c2ccccc2)n(-c2ccccc2)c1N`, the GI50 in the assay on K562 was 19.7 µM (inactive); in the assay on NCI-H522, 41.9 µM (inactive); with HT-29, > 100 µM (inactive); in the assay on SNB-75, 1.27 µM (inactive); in the assay on UO-31 it was 12.8 µM (inactive); in the assay with IGROV-1, 88.5 µM (inactive). Moreover, the GI50 in the assay on CAKI-1 was > 100 µM (inactive); in the assay with COLO 205 it was > 100 µM (inactive); in the assay on HCT-15, greater than 100 µM; with MCF7 it was > 100 µM (inactive); with RXF 393, 41.6 µM (inactive); in the assay on SK-OV-3, 83.6 µM (inactive). Besides, the GI50 in the assay with M14 is > 100 µM (inactive); with RPMI-8226, 5.87 µM (inactive); in the assay with HOP-62 it was 84.9 µM (inactive); in the assay with T47D, 6.52 µM (inactive); with SN12C, > 100 µM (inactive); with A498, > 100 µM (inactive).
